Measured values taken from US11478496B2, “Treatments of prostate cancer” (THE FLORIDA INTERNATIONAL UNIVERSITY BOARD OF TRUSTEES, priority 2020, dated 2022).

How the values were obtained:
FEN1 = FEN1 (Homo sapiens, UniProt P39748); experiment: FEN1 activity; type: biochemical
Procedure: 10 μM hit compounds were incubated with 10 nM pol β, 10 nM FEN1 and 20 nM LIG I in BER reaction buffer containing 50 mM Tris-HCl (pH 7.5), 50 mM KCl, 0.1 mM EDTA, 0.1 mg/ml bovine serum albumin, and 0.01% Nonidet P-40 in the presence of 5 mM Mg^2+ and 2 mM ATP. The compounds were initially preincubated with a BER enzyme at varying concentrations for 1 h with rotation. This was followed by the addition of 25 nM ^32P-labeled substrate containing an abasic site, which was precut with 25 or 50 nM APEI. The reaction mixture (20 μL) was incubated at 37° C. for 30 min, and the reaction was terminated by 50 mM EDTA. Substrates, products, and unrepaired BER intermediates were separated by 15% urea-denaturing sequencing gel and detected by a Pharos FX Plus PhosphorImager (Bio-Rad, Hercules, Calif.).

LAPC4 cells [1] = experiment: RTCA impedance proliferation assay, LAPC4; type: cell-based, human; details: 10 μM; medium with both FBS and CSS
Procedure: (5A-5B) LNCaP cells were plated onto xCelligence E-plates at 10^4 cells per well in medium supplemented with either 10% FBS (5A) or 10% CSS (5B) serum. Cells attached overnight and were treated with vehicle (DMSO) or 10 μM of the indicated compounds. (5C-5D) LAPC4 cells were plated at 5×10^4 cells per well onto xCelligence E-plates in media supplemented with FBS (5C) or CSS (5D) and allowed to attach overnight. Treatment was conducted as in (5A-5B) and impedance measured continuously in 30 min intervals. […] Proliferation assays were done using Roche DP Real Time Cell Analyzer (RTCA), as described by the manufacturer. Background impedance was established after incubating E-plates (Acea Biosciences, San Diego, Calif.) with 50 μL media at room temperature for 30 min and placed in RTCA. Cells were then seeded in 100 μL per well. Cells attached overnight and then treated. During attachment stage and after treatment impedance was measured every 30 min. Impedance is represented by cell index and is calculated as follows: CI=(Zi−Zo)/15Ω where Zi is impedance at an individual time point, and Zo is the background impedance. Average CI was calculated from four wells per treatment at each time point and normalized to the impedance immediately after compound addition.

RWPE1 cells = experiment: RTCA impedance proliferation assay, RWPE1; type: cell-based; details: 10 μM; serum free medium
Procedure: (6A-6B) PNT1A cells were plated onto xCelligence E-plates at 5×10^4 cells per well in media supplemented with 10% FBS (6A) or CSS (6B). Cells were allowed to attach overnight and treated with vehicle (DMSO) or 10 μM of indicated compounds. Cellular impedance was monitored continuously with 30 min intervals. (6C) RWPE1 cells were plated at 5×10^4 cells per well in serum free medium supplemented with Epidermal Growth Factor (EGF) and Bovine Pituitary Extract ([…]) onto E-plates and treated with 10 μM of indicated compounds as indicated. […] Proliferation assays were done using Roche DP Real Time Cell Analyzer (RTCA), as described by the manufacturer. Background impedance was established after incubating E-plates (Acea Biosciences, San Diego, Calif.) with 50 μL media at room temperature for 30 min and placed in RTCA. Cells were then seeded in 100 μL per well. Cells attached overnight and then treated. During attachment stage and after treatment impedance was measured every 30 min. Impedance is represented by cell index and is calculated as follows: CI=(Zi−Zo)/15Ω where Zi is impedance at an individual time point, and Zo is the background impedance. Average CI was calculated from four wells per treatment at each time point and normalized to the impedance immediately after compound addition.

LAPC4 cells [2] = experiment: Cell Titer Glo cell viability assay, LAPC4; type: cell-based, human; details: 10 μM; androgen depleted conditions (CSS); 24 and 48 h
Procedure: (§1) FIGS. 3A-3B show cellular toxicity of the lead compounds in androgen-dependent prostate cancer cell lines. (3A) LNCaP cells were plated in a 96-well plate at 1×10^4 cells/well in the presence of Fetal Bovine Serum (FBS) or Charcoal stripped Serum (CSS). Cells were allowed to attach overnight and were treated with either vehicle (DMSO) or 10 μM of indicated compound. At 24 and 48 h cellular viability was compared using the Cell Titer Glo Luminescent Cell Viability kit. (3B) LAPC4 cells were plated in a 96-well plate at a density of 1×10^4 cells/well in the presence of FBS or CSS. Cells were allowed to attach overnight and treated with 10 μM of indicated compound.
(§2) Cell viability was determined using the Cell Titer Glo Cell Viability Assay (Promega, Madison, Wis.), as recommended by manufacturer. All experiments were performed in quadruplicate.

LNCaP cells [3] = experiment: Cell Titer Glo cell viability assay, LNCaP; type: cell-based; details: 10 μM; androgen depleted conditions (CSS); 24 and 48 h
Procedure: as §1, §2

PNT1A cells = experiment: RTCA impedance proliferation assay, PNT1A; type: cell-based; details: 10 μM
Procedure: (6A-6B) PNT1A cells were plated onto xCelligence E-plates at 5×10^4 cells per well in media supplemented with 10% FBS (6A) or CSS (6B). Cells were allowed to attach overnight and treated with vehicle (DMSO) or 10 μM of indicated compounds. Cellular impedance was monitored continuously with 30 min intervals. (6C) RWPE1 cells were plated at 5×10^4 cells per well in serum free medium supplemented with Epidermal Growth Factor (EGF) and Bovine Pituitary Extract ([…]) onto E-plates and treated with 10 μM of indicated compounds as indicated. […] Background impedance was established after incubating E-plates (Acea Biosciences, San Diego, Calif.) with 50 μL media at room temperature for 30 min and placed in RTCA. Cells were then seeded in 100 μL per well. Cells attached overnight and then treated. During attachment stage and after treatment impedance was measured every 30 min. Impedance is represented by cell index and is calculated as follows: CI=(Zi−Zo)/15Ω where Zi is impedance at an individual time point, and Zo is the background impedance. Average CI was calculated from four wells per treatment at each time point and normalized to the impedance immediately after compound addition.

LNCaP cells [4] = experiment: RTCA impedance proliferation assay, LNCaP; type: cell-based; details: 10 μM; for LNCaP cell proliferation, concentration dependence: 1 μM and 0.1 μM
Procedure: (5A-5B) LNCaP cells were plated onto xCelligence E-plates at 10^4 cells per well in medium supplemented with either 10% FBS (5A) or 10% CSS (5B) serum. […] (5C-5D) LAPC4 cells were plated at 5×10^4 cells per well onto xCelligence E-plates in media supplemented with FBS (5C) or CSS (5D) and allowed to attach overnight. Treatment was conducted as in (5A-5B) and impedance measured continuously in 30 min intervals. […] Background impedance was established after incubating E-plates (Acea Biosciences, San Diego, Calif.) with 50 μL media at room temperature for 30 min and placed in RTCA. Cells were then seeded in 100 μL per well. Cells attached overnight and then treated. During attachment stage and after treatment impedance was measured every 30 min. Impedance is represented by cell index and is calculated as follows: CI=(Zi−Zo)/15Ω where Zi is impedance at an individual time point, and Zo is the background impedance. Average CI was calculated from four wells per treatment at each time point and normalized to the impedance immediately after compound addition.

Sequence of FEN1 (P39748 whole entry): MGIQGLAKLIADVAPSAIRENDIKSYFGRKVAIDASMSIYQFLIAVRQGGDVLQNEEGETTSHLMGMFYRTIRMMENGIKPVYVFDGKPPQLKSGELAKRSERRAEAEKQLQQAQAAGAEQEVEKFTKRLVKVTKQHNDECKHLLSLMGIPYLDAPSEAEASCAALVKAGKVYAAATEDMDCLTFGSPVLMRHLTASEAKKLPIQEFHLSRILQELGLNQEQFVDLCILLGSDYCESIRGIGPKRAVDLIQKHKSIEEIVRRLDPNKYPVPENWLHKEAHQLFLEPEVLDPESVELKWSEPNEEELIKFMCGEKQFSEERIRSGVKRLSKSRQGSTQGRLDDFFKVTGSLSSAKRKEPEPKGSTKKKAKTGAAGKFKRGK

Question: With `C[C@@H]1C/C=C/C=C/C=C/C=C/[C@H](O[C@@H]2O[C@H](C)[C@@H](O)[C@H](N)[C@@H]2O)C[C@@H]2O[C@](O)(C[C@@H](O)C[C@H]3O[C@@H]3/C=C/C(=O)O1)C[C@H](O)[C@H]2C(=O)O` [natamycin] as the compound, how does the “inhibitory effect on FEN1” value (FEN1) read?
Answer: No inhibitory effect

Question: And the “LAPC4 cellular proliferation and attachment” value (LAPC4 cells [1])?
Answer: abolished

Question: What about the RWPE1 proliferation (RWPE1 cells) of the same compound?
Answer: slightly inhibited

Question: And the “toxicity (cell viability) in LAPC4” value (LAPC4 cells [2])?
Answer: highest toxicity

Question: What about the “toxicity (cell viability) in LNCaP” value (LNCaP cells [3]) of the same compound?
Answer: highest toxicity

Question: What about the “PNT1A cell proliferation, concentration dependence” value (PNT1A cells; 1 μM and 0.1 μM, both CSS and FBS medium) of the same compound?
Answer: inhibited only with 10 μM

Question: And the “time of treatment at which effect on PNT1A proliferation became evident” value (PNT1A cells; FBS and CSS media)?
Answer: 42 h

Question: What about the PNT1A proliferation (PNT1A cells; both FBS and CSS supplemented media) of the same compound?
Answer: proliferated in the presence of all inhibitors except natamycin

Question: And the “LNCaP cell proliferation, concentration dependence” value (LNCaP cells [4]; FBS medium)?
Answer: significantly inhibited by all concentrations

Question: And the “LNCaP cell proliferation, concentration dependence” value (LNCaP cells [4]; medium with CSS)?
Answer: 10 μM and 1 μM were inhibitory

Question: And the LNCaP cellular proliferation (LNCaP cells [4]; FBS)?
Answer: slowest proliferation rate

Question: And the LNCaP cellular impedance (LNCaP cells [4]; androgen depleted medium (CSS))?
Answer: abolished cellular impedance
